Source: patent publication US8889704B2 (Array BioPharma Inc., priority 2011, dated 2014)
pIC50: −log10 of the molar value. Counter-ions that a name gives are not always drawn.

Assays:
Assay type in all cases: biochemical
recombinant rat PIM-3 = recombinant rat PIM-3 (Rattus norvegicus, UniProt O70444); assay: PIM-3 Assay (as Example A); details: averaged IC50; 30 μM ATP, 3.75 μM PIM2tide, 0.5 nM PIM-3
Method in brief: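 Recombinant rat PIM-3 (0.5 nM) with 3.75 μM PIM2tide and 30 μM [γ-33P]ATP in MOPS pH 7.4 buffer, 60 min at 22 °C; labelled peptide captured on phosphocellulose filters and counted by scintillation. 10-point curve (top dose 10 μM, 2% DMSO); IC50 from 4-parameter fit of percent of control.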

PIM-1 = PIM-1 (Homo sapiens, UniProt P11309); assay: Enzyme PIM-1 Assay ([33P]ATP incorporation into PIM2tide, filter plate); details: averaged IC50; 35 μM ATP, 7.5 μM PIM2tide, 0.25 nM PIM-1, 60 min at 22° C.
Method in brief: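 Radiometric assay: 0.25 nM PIM-1 phosphorylates 7.5 μM PIM2tide with 35 μM [γ-33P]ATP in 20 mM MOPS pH 7.4, 10 mM MgCl2, 1 mM DTT, 0.005% Tween-20, 60 min at 22 °C. Product captured on P81 filters, scintillation counted; 10-point 3-fold curve from 10 μM top, 2% DMSO, IC50 by 4-parameter logistic fit of POC.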

[1] = target: T1, GST-tagged recombinant full-length human Pim-2 (Homo sapiens, UniProt Q9P1W9); assay: PIM-2 Assay (as Example A); details: averaged IC50; 4 μM ATP, 1.0 μM PIM2tide, 1.5 nM Pim-2
T1 construct: GST-tagged recombinant full-length human Pim-2; GST
Method in brief: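 Radiometric filter-binding assay: GST-tagged full-length human Pim-2 (1.5 nM) phosphorylates 1.0 μM PIM2tide with 4 μM [γ-33P]ATP for 60 min at 22 °C in pH 7.4 MOPS buffer, 2% DMSO. 10-point 3-fold dilutions from 10 μM top dose; IC50 from 4-parameter fit of percent of control.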

PIM-1, sequence (P11309 whole entry, species assumed): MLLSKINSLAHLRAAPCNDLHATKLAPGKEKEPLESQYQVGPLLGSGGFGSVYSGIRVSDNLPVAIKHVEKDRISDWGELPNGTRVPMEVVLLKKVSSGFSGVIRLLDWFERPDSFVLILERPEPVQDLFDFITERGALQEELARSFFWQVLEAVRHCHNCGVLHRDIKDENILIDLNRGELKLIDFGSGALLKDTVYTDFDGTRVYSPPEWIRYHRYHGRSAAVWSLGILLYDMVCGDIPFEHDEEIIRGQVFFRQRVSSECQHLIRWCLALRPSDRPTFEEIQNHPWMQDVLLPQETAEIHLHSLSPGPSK
T1 sequence (Q9P1W9 whole entry): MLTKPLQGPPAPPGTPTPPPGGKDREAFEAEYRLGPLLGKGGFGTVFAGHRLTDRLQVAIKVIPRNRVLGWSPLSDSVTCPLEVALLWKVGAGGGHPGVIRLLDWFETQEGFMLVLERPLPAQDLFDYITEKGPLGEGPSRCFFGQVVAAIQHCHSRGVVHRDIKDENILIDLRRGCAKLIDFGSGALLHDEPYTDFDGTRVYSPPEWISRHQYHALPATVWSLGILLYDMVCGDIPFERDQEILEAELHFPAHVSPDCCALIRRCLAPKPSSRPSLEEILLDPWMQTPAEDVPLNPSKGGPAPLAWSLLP

`COc1cc2nc(-c3nnc4ccc([C@@H](N5C[C@@H](N)[C@@H](O)C5)C(F)(F)F)cn34)ccc2cc1F` [Example 131, (3S,4R)-4-amino-1-((R)-2,2,2-trifluoro-1-(3-(6-fluoro-7-methoxyquinolin-2-yl)-[1,2,4]triazolo[4,3-a]pyridin-6-yl)ethyl)pyrrolidin-3-ol dihydrochloride] showed a pIC50 (recombinant rat PIM-3) of 7.77, a pIC50 (PIM-1) of 8.66 and a pIC50 [1] of 6.10.

`CCOc1cc2nc(-c3nnc4ccc([C@@H](N5C[C@@H](N)[C@H](OC)C5)C(F)(F)F)cn34)ccc2cc1F` [Example 299, (3R,4R)-1-((R)-1-(3-(7-ethoxy-6-fluoroquinolin-2-yl)-[1,2,4]triazolo[4,3-a]pyridin-6-yl)-2,2,2-trifluoroethyl)-4-methoxypyrrolidin-3-amine dihydrochloride] showed a pIC50 (recombinant rat PIM-3) of 8.80, a pIC50 (PIM-1) of 9.26 and a pIC50 [1] of 6.16.

Compound `CC(C)(O)COc1ccc2ccc(-c3nnc4ccc([C@H](N5CC[C@](C)(N)C5)C(F)(F)F)cn34)nc2c1` [Example 297, 1-(2-(6-((S)-1-((S)-3-amino-3-methylpyrrolidin-1-yl)-2,2,2-trifluoroethyl)-[1,2,4]triazolo[4,3-a]pyridin-3-yl)quinolin-7-yloxy)-2-methylpropan-2-ol dihydrochloride] has a pIC50 (recombinant rat PIM-3) of 9.70, a pIC50 (PIM-1) of 9.74 and a pIC50 [1] of 7.70.

In the case of `CC(C)(CCO)c1cccc2ccc(-c3nnc4ccc([C@@H](N5CC[C@H](N)C5)C(F)(F)F)cn34)nc12` [Example 224, 3-(2-(6-((R)-1-((S)-3-aminopyrrolidin-1-yl)-2,2,2-trifluoroethyl)-[1,2,4]triazolo[4,3-a]pyridin-3-yl)quinolin-8-yl)-3-methylbutan-1-ol dihydrochloride], the pIC50 (recombinant rat PIM-3) was 9.15, the pIC50 (PIM-1) was 9.44 and the pIC50 [1] was 7.03.

`Cc1c(-c2cnn(C)c2)ccc2ccc(-c3nnc4ccc([C@@H](N5CC[C@H](N)C5)C(F)(F)F)cn34)nc12` [Example 191, (S)-1-((R)-2,2,2-trifluoro-1-(3-(8-methyl-7-(1-methyl-1H-pyrazol-4-yl)quinolin-2-yl)-[1,2,4]triazolo[4,3-a]pyridin-6-yl)ethyl)pyrrolidin-3-amine dihydrochloride] gave a pIC50 (recombinant rat PIM-3) of 9.70, a pIC50 (PIM-1) of 9.70 and a pIC50 [1] of 7.13.

`C[C@]1(N)CCN([C@H](c2ccc3nnc(-c4ccc5cccc(C6CC6)c5n4)n3c2)C(F)(F)F)C1` [Example 97, (S)-1-((R)-1-(3-(8-cyclopropylquinolin-2-yl)-[1,2,4]triazolo[4,3-a]pyridin-6-yl)-2,2,2-trifluoroethyl)-3-methylpyrrolidin-3-amine dihydrochloride] was tested, and the pIC50 (recombinant rat PIM-3) was 8.09, the pIC50 (PIM-1) was 9.96 and the pIC50 [1] was 7.19.

`COc1cccc2ccc(-c3nnc4ccc([C@@H](N5CC[C@H](NCCF)C5)C(F)(F)F)cn34)nc12` [Example 80, (S)—N-(2-fluoroethyl)-1-((R)-2,2,2-trifluoro-1-(3-(8-methoxyquinolin-2-yl)-[1,2,4]triazolo[4,3-a]pyridin-6-yl)ethyl)pyrrolidin-3-amine dihydrochloride] showed a pIC50 (recombinant rat PIM-3) of 7.49, a pIC50 (PIM-1) of 8.19 and a pIC50 [1] of under 7.00.

`COc1ccc2ccc(-c3nnc4ccc([C@@H](N5CC[C@H](N)C5)C(F)(F)F)cn34)nc2c1Cl` [Example 175, (S)-1-((R)-1-(3-(8-chloro-7-methoxyquinolin-2-yl)-[1,2,4]triazolo[4,3-a]pyridin-6-yl)-2,2,2-trifluoroethyl)pyrrolidin-3-amine hydrochloride] was tested, and the pIC50 (recombinant rat PIM-3) was 8.85, the pIC50 (PIM-1) was 9.15 and the pIC50 [1] was under 7.00.

Work on `CC(C)(C)c1cccc2ccc(-c3nnc4ccc([C@@H](N5C[C@@H](O)[C@H](O)C5)C(F)(F)F)cn34)nc12` [Example 74, (3R,4R)-1-((R)-1-(3-(8-tert-butylquinolin-2-yl)-[1,2,4]triazolo[4,3-a]pyridin-6-yl)-2,2,2-trifluoroethyl)pyrrolidine-3,4-diol] yielded a pIC50 (recombinant rat PIM-3) of 8.17, a pIC50 (PIM-1) of 10.05 and a pIC50 [1] of 7.39.

`CO[C@@H](C)COc1cc2nc(-c3nnc4ccc([C@H](N5CC[C@](C)(N)C5)C(F)(F)F)cn34)ccc2cc1F` [Example 322, (S)-3-methyl-1-((S)-2,2,2-trifluoro-1-(3-(6-fluoro-7-((S)-2-methoxypropoxy)quinolin-2-yl)-[1,2,4]triazolo[4,3-a]pyridin-6-yl)ethyl)pyrrolidin-3-amine di-hydrochloride] showed a pIC50 (recombinant rat PIM-3) of 10.00, a pIC50 (PIM-1) of 10.10 and a pIC50 [1] of 7.64.

`N[C@H]1CCN([C@H](c2ccc3nnc(-c4ccc5cccc(O)c5n4)n3c2)C(F)(F)F)C1` [Example 208, 2-(6-((R)-1-((S)-3-aminopyrrolidin-1-yl)-2,2,2-trifluoroethyl)-[1,2,4]triazolo[4,3-a]pyridin-3-yl)quinolin-8-ol dihydrochloride] was tested, and the pIC50 (recombinant rat PIM-3) was 8.60, the pIC50 (PIM-1) was 9.39 and the pIC50 [1] was under 6.00.

`CC1(O)CCN([C@H](c2ccc3nnc(-c4ccc5cccc(C(C)(C)C)c5n4)n3c2)C(F)(F)F)C1` (single isomer, unassigned; diastereomer 1) [Example 195, hydrochloride] was tested, and the pIC50 (recombinant rat PIM-3) was 7.28, the pIC50 (PIM-1) was 7.67 and the pIC50 [1] was under 6.00.

`CCOc1cc2nc(-c3nnc4ccc([C@H](N5CC[C@@H](CN)C5)C(F)(F)F)cn34)ccc2cc1F` [Example 295, ((S)-1-((S)-1-(3-(7-ethoxy-6-fluoroquinolin-2-yl)-[1,2,4]triazolo[4,3-a]pyridin-6-yl)-2,2,2-trifluoroethyl)pyrrolidin-3-yl)methanamine hydrochloride] gave a pIC50 (recombinant rat PIM-3) of 7.92, a pIC50 (PIM-1) of 8.59 and a pIC50 [1] of 6.28.

Compound `COC[C@@H](C)Oc1cccc2ccc(-c3nnc4ccc(C(C)N5CC[C@H](N)C5)cn34)nc12` (stereo partly drawn) [Example 33, (3S)-1-(1-(3-(8-((R)-1-methoxypropan-2-yloxy)quinolin-2-yl)-[1,2,4]triazolo[4,3-a]pyridin-6-yl)ethyl)pyrrolidin-3-amine trihydrochloride] has a pIC50 (recombinant rat PIM-3) of 8.23, a pIC50 (PIM-1) of 8.85 and a pIC50 [1] of 6.12.

Compound `Cc1cc(-c2cc3nc(-c4nnc5ccc([C@@H](N6CC[C@H](N)C6)C(F)(F)F)cn45)ccc3cc2F)n(C)n1` [Example 204, (3 S)-1-((1R)-1-(3-(7-(1,3-dimethyl-1H-pyrazol-5-yl)-6-fluoroquinolin-2-yl)-[1,2,4]triazolo[4,3-a]pyridin-6-yl)-2,2,2-trifluoroethyl)pyrrolidin-3-amine dihydrochloride] has a pIC50 (recombinant rat PIM-3) of 8.52, a pIC50 (PIM-1) of 9.32 and a pIC50 [1] of under 6.00.

In the case of `CC1(COc2cccc3ccc(-c4nnc5ccc([C@@H](N6CC[C@H](N)C6)C(F)(F)F)cn45)nc23)COC1` [Example 192, (S)-1-((R)-2,2,2-trifluoro-1-(3-(8-(3-methyloxetan-3-yl)methoxy)quinolin-2-yl)-[1,2,4]triazolo[4,3-a]pyridin-6-yl)ethyl)pyrrolidin-3-amine diformate], the pIC50 (recombinant rat PIM-3) was 9.30, the pIC50 (PIM-1) was 9.77 and the pIC50 [1] was 7.10.

In the case of `CC(C)NC(=O)c1ccc2ccc(-c3nnc4ccc([C@@H](N5CC[C@@H](N)C5)C(F)(F)F)cn34)nc2c1` [Example 49, 2-(6-((R)-1-((R)-3-aminopyrrolidin-1-yl)-2,2,2-trifluoroethyl)-[1,2,4]triazolo[4,3-a]pyridin-3-yl)-N-isopropylquinoline-7-carboxamide dihydrochloride], the pIC50 (recombinant rat PIM-3) was 9.40, the pIC50 (PIM-1) was 9.66 and the pIC50 [1] was 7.17.
